Results reported in publication PMC11111408, “Concurrent inhibition of oncogenic and wild-type RAS-GTP for cancer therapy” (Nature, 2024).
Values joined by “and” are separate entries in the source; they are usually repeats but may differ in a detail not shown here. Equal values may be shown once.

Legend:
[1] = target: NRAS^Q61L (Homo sapiens, UniProt P01111+P62937, Q61L); assay: RAS binding affinity of compound-bound CYPA (Kd2), SPR; conditions: steady state SPR, (95% CI)
[2] = target: KRAS^G13D (Homo sapiens, UniProt P01116+P62937, G13D); assay: Cellular RAS–RAF (CRAF RBD) disruption, nano-BRET in U2OS cells; assay type: cell-based; conditions: (95% CI)
Text: (§1) KRAS4B, or other small GTPases, containing the indicated mutations were cloned in pNLF-N or pHTN plasmids for expression with an N-terminal nanoluciferase or HaloTag fusion, respectively. […] The following day, the cells were collected by Trypsin and reseeded in a white tissue culture-treated 96-well plate in OptiMem phenol red-free medium (Gibco) containing 4% FBS and a 1:1,000 dilution of NanoBRET 618 HaloTag ligand (Promega). For endpoint concentration response curves, vivazine nanoluciferase substrate was added to 1× concentration in OptiMem phenol red-free medium with 4% FBS. Varying concentrations of inhibitor were added and incubated for 1 or 4 h before the nano-BRET signal was measured on a Perkin Elmer Envision plate reader. For kinetic assays, endurazine nanoluciferase substrate was used in place of vivazine, and the plate was placed in a Cytation5 multi-mode reader pre-equilibrated to 37 °C and 5% CO2.

[3] = test system: Capan-1, SW620, AsPC-1, HPAC, NCI-H358, PSN1, HUPT3, HCT 116, Hs 766T, SK-MEL-30, KU1919, NCI-H1975, A375; assay: pERK (AlphaLISA) in human cancer cell lines; assay type: cell-based
Text: (§2) Data points show biological duplicates normalized to vehicle control. […] Data points show biological duplicates normalized to vehicle control from 1 of 2–26 independent experiments. Source Data

[4] = test system: Capan-1, SW620, AsPC-1, HPAC, NCI-H358, PSN1, HUPT3, HCT 116, Hs 766T, SK-MEL-30, KU1919, NCI-H1975, A375; assay: Proliferation (CTG) in human cancer cell lines; assay type: cell-based
Experimental: as §2
Alternatively, cells were seeded in round-bottom ultra-low attachment 96-well plates, centrifuged at 1,000 rpm for 10 min to pellet the cells, and incubated overnight or up to 72 h to allow for 3D spheroid formation. […] Cell viability was determined by CellTiter-Glo 2.0 reagent (2D CTG) (Promega, G9243) or 3D CellTiter-Glo reagent (3D CTG) (Promega, G9683) according to the manufacturer’s protocols. Luminescence was detected using a SpectraMax M5 Plate Reader (Molecular Devices) of Perkin Elmer Enspire. Luminescence signal was normalized to vehicle-treated wells (normalized signal (%) = (luminescence (treated)/mean luminescence (vehicle)) × 100%). […] Data were plotted as log [inhibitor (M)], and a four-parameter sigmoidal concentration response model was fitted to the data to calculate EC50. […] Pa16C MEK1 mutant cells were evaluated by live-cell counting using Calcein AM and a SpectraMax i3X multi-mode detection platform (Molecular Devices). Growth percentages were calculated by normalizing the treated cell counts to their respective untreated cell counts.

[5] = target: T1, KRAS^G12V (Homo sapiens, UniProt P01116+P62937, G12V); assay: Cellular RAS–RAF (CRAF RBD) disruption, nano-BRET in U2OS cells; assay type: cell-based; set-up: expressed in transfected cells; host or cells: U2OS PPIA-KO; Cellular RAS-RAF disruption G12V / Cellular nano-BRET G12V: scale not given here
Text: as §1

[6] = target: KRAS^G12C (Homo sapiens, UniProt P01116+P62937, G12C); assay: Biochemical RAS–RAF (BRAF RBD) disruption, TR-FRET; set-up: His6-TEV (N); made in house; host or cells: BL21(DE3) Escherichia coli
Text: (§3) Time-resolved fluorescence resonance energy transfer (TR-FRET) was used as previously described to assess disruption of the interactions between wild-type RAS or the mutant oncogenic RAS proteins and the RAS-binding domain of BRAF, and to assess the induction of interactions between the RAS proteins and CYPA[12].

[7] = target: T1, KRAS^G12V; assay: Biochemical RAS–RAF (BRAF RBD) disruption, TR-FRET; set-up: His6-TEV (N); made in house; host or cells: BL21(DE3) Escherichia coli
Text: as §3

Question: Which results are given for `CCn1c(-c2cc(N3CCN(C4CC4)CC3)cnc2[C@H](C)OC)c2c3cc(ccc31)-c1csc(n1)C[C@H](NC(=O)[C@H]1[C@@H]3COC[C@@H]31)C(=O)N1CCC[C@H](N1)C(=O)OCC(C)(C)C2` [RMC-7977]?
Answer: Kd [1]: 0.24 µM; EC50 [2]: 0.0154 µM; pERK of RAS mutant and RAS WT cell lines treated with RMC-7977 ([3]; CAPAN1, RMC-7977 1.52 nM): 19.123 and 19.8052; pERK of RAS mutant and RAS WT cell lines treated with RMC-7977 ([3]; CAPAN1, RMC-7977 4.57 nM): 1.955 and 2.566; pERK of RAS mutant and RAS WT cell lines treated with RMC-7977 ([3]; HUPT3, RMC-7977 0.05 nM): 94.4091 and 94.8337 and 88.9674 and 91.9384 and 90.4786 and 91.137; pERK of RAS mutant and RAS WT cell lines treated with RMC-7977 ([3]; HUPT3, RMC-7977 0.46 nM): 54.494 and 62.3496 and 67.5543 and 72.6449 and 54.2163 and 63.5857; pERK (normalised response) ([3]; NCIH358, RMC-7977 0.05 nM): 95.3351 and 101.687; pERK (normalised response) ([3]; NCIH358, RMC-7977 0.46 nM): 100.659 and 104.04; pERK (normalised response) ([3]; NCIH358, RMC-7977 4.12 nM): 12.3735 and 16.2725; pERK (normalised response) ([3]; PSN1, RMC-7977 0.05 nM): 88.9166 and 100.089; pERK (normalised response) ([3]; RMC-7977 123.46 nM, replicates): -0.725 and -0.593 and -0.5397 and -0.3753 and -0.4309 and -0.2687 and -0.4302 and -0.02426 and 0.06955 and 0.1569 and -0.4286 and -0.3396 and -0.5772 and -0.5479 and -0.6628 and -0.5005 and -0.5749 and -0.2908; pERK (normalised response) ([3]; RMC-7977 370.39 nM, replicates): -0.7644 and -0.7111 and -0.5907 and -0.5768 and -0.4216 and -0.3892 and -0.6033 and -0.5758 and -0.3364 and 0.5402 and -0.5111 and -0.3801 and -0.726 and -0.7102 and -0.7981 and -0.753 and -0.6335 and -0.6222; pERK (normalised response) ([3]; RMC-7977 1111.14 nM, replicates): -0.8316 and -0.7436 and -0.6671 and -0.6486 and -0.6046 and -0.6033 and -0.5758 and -0.3138 and -0.0744 and -0.5014 and -0.4707 and -0.7846 and -0.6967 and -0.78 and -0.7169 (2×) and -0.6921; pERK (normalised response) ([3]; RMC-7977 3333.41 nM, replicates): -0.871 and -0.8455 and -0.7297 and -0.8432 and -0.7667 and -0.6405 and -0.6259 and -0.2555 and 0.2652 and -0.5936 and -0.3995 and -0.7395 and -0.6651 and -0.762 and -0.5906 and -0.7169 and -0.656; pERK (normalised response) ([3]; RMC-7977 10000.00 nM, replicates): -0.9243 and 0.3336 and -0.8571 and 0.183 and -0.9196 and -0.05096 and -0.6324 and -0.02426 and -0.4949 and 0.5774 and -0.5725 and 0.8637 and -0.8004 and 0.4058 and -0.7439 and 0.02254 and -0.7755 and 0.9604; Cell proliferation (CellTiter-Glo) ([4]; ASPC1, RMC-7977 1.52 nM): 68.8907 and 77.7752; Cell proliferation (CellTiter-Glo) ([4]; ASPC1, RMC-7977 4.57 nM): 54.6049 and 56.084; Cell proliferation (CellTiter-Glo) ([4]; ASPC1, RMC-7977 13.72 nM): 31.4521 and 36.2763; Cell proliferation (CellTiter-Glo) ([4]; ASPC1, RMC-7977 41.15 nM): 19.3277 and 20.3014; Cell proliferation (CellTiter-Glo) ([4]; ASPC1, RMC-7977 123.46 nM): 12.8203 and 13.4559; Cell proliferation (CellTiter-Glo) ([4]; ASPC1, RMC-7977 370.39 nM): 9.7785 and 11.4734; Cell proliferation (CellTiter-Glo) ([4]; ASPC1, RMC-7977 1111.14 nM): 8.521 and 9.0438; Cell proliferation (CellTiter-Glo) ([4]; ASPC1, RMC-7977 3333.41 nM): 6.811 and 10.0312; Cell proliferation (CellTiter-Glo) ([4]; ASPC1, RMC-7977 10000.00 nM): 5.308 and 5.788; Cell proliferation (CellTiter-Glo) ([4]; CAPAN1, RMC-7977 1.52 nM): 59.9636 and 63.7997; Cell proliferation (CellTiter-Glo) ([4]; CAPAN1, RMC-7977 4.57 nM): 35.7372 and 42.3141; Cell proliferation (CellTiter-Glo) ([4]; CAPAN1, RMC-7977 13.72 nM): 18.382 and 18.5053; Cell proliferation (CellTiter-Glo) ([4]; CAPAN1, RMC-7977 41.15 nM): 11.8827 and 13.681; Cell proliferation (CellTiter-Glo) ([4]; CAPAN1, RMC-7977 123.46 nM): 8.811 and 11.6796; Cell proliferation (CellTiter-Glo) ([4]; CAPAN1, RMC-7977 370.39 nM): 5.4975 and 10.0571; Cell proliferation (CellTiter-Glo) ([4]; CAPAN1, RMC-7977 1111.14 nM): 6.166 and 6.972; Cell proliferation (CellTiter-Glo) ([4]; CAPAN1, RMC-7977 3333.41 nM): 4.455 and 5.8786; Concentration-response, normalized signal (replicate wells) ([4]; HCT116, RMC-7977 4.00 nM): 82.5863 and 97.7262 and 86.8037 and 89.4627 and 85.957 and 97.0725 and 88.0274 and 98.1156 and 87.4457 and 99.4211 and 79.8906 and 84.8325; Concentration-response, normalized signal (replicate wells) ([4]; HCT116, RMC-7977 36.01 nM): 18.5896 and 19.6721 and 20.3034 and 20.9024 and 39.3935 and 41.5603 and 31.7309 and 32.7207 and 34.8483 and 44.0944 and 29.6731 and 29.9889; Concentration-response, normalized signal (replicate wells) ([4]; HCT116, RMC-7977 324.09 nM): 2.22 and 2.64 and 1.664 and 2.991 and 5.879 and 6.569 and 5.425 and 6.586 and 5.001 and 5.957 and 2.283 and 3.5458; Concentration-response, normalized signal (replicate wells) ([4]; HCT116, RMC-7977 972.25 nM): 1.618 and 2.167; Concentration-response, normalized signal (replicate wells) ([4]; cell line heading above the shown rows, RMC-7977 10000.00 nM): 4.998 and 6.7184; EC50 ([5]; KRAS^G12V, CRAF RBD, nano-BRET, (95% CI)): 0.00766 µM; Cellular RAS-RAF disruption G12V ([5]; RMC-7977 0.0254 nM): 100.00; Cellular RAS-RAF disruption G12V ([5]; RMC-7977 0.05 nM): 95.09 and 96.3702; Cellular RAS-RAF disruption G12V ([5]; RMC-7977 0.08 nM): 99.62; Cellular RAS-RAF disruption G12V ([5]; RMC-7977 0.23 nM): 93.81; Cellular RAS-RAF disruption G12V ([5]; RMC-7977 0.46 nM): 63.26 and 77.9214; Cellular RAS-RAF disruption G12V ([5]; RMC-7977 2.06 nM): 66.75; Cellular RAS-RAF disruption G12V ([5]; RMC-7977 4.12 nM): 17.09 and 32.4499; Cellular RAS-RAF disruption G12V ([5]; RMC-7977 12.35 nM): 8.26 and 13.953; Cellular RAS-RAF disruption G12V ([5]; RMC-7977 18.52 nM): 13.89; Cellular RAS-RAF disruption G12V ([5]; RMC-7977 37.04 nM): 4 and 4.5731; Cellular RAS-RAF disruption G12V ([5]; RMC-7977 55.56 nM): 3.90; Cellular RAS-RAF disruption G12V ([5]; RMC-7977 111.11 nM): 1.99 and 1.6717; Cellular RAS-RAF disruption G12V ([5]; RMC-7977 166.67 nM): 0.38; Cellular RAS-RAF disruption G12V ([5]; RMC-7977 500.00 nM): 0.05; Cellular nano-BRET G12V ([5]; calculated RMC-7977:CYPA complexes 1.95 nM): 99.62; Cellular nano-BRET G12V ([5]; calculated RMC-7977:CYPA complexes 34.93 nM): 41.01 and 56.3646; Cellular nano-BRET G12V ([5]; calculated RMC-7977:CYPA complexes 52.21 nM): 66.75; Cellular nano-BRET G12V ([5]; calculated RMC-7977:CYPA complexes 153.42 nM): 36.46; Cellular nano-BRET G12V ([5]; calculated RMC-7977:CYPA complexes 297.71 nM): 8.26 and 13.953; Cellular nano-BRET G12V ([5]; calculated RMC-7977:CYPA complexes 433.65 nM): 13.89; Cellular nano-BRET G12V ([5]; calculated RMC-7977:CYPA complexes 798.08 nM): 4 and 4.5731; Cellular nano-BRET G12V ([5]; calculated RMC-7977:CYPA complexes 1814.88 nM): 1.99 and 1.6717; Cellular nano-BRET G12V ([5]; calculated RMC-7977:CYPA complexes 2304.15 nM): 0.38; Cellular nano-BRET G12V ([5]; calculated RMC-7977:CYPA complexes 3597.12 nM): 0.05; EC50 [6]: 0.0318 µM; EC50 [7]: 0.044 µM
